Structures are written as SMILES. Read-outs that look alike come from different tables or passages of the source.

Data set [1] has as its target T1, human estrogen receptor (Homo sapiens, UniProt P03372).
T1 sequence (P03372 1-595): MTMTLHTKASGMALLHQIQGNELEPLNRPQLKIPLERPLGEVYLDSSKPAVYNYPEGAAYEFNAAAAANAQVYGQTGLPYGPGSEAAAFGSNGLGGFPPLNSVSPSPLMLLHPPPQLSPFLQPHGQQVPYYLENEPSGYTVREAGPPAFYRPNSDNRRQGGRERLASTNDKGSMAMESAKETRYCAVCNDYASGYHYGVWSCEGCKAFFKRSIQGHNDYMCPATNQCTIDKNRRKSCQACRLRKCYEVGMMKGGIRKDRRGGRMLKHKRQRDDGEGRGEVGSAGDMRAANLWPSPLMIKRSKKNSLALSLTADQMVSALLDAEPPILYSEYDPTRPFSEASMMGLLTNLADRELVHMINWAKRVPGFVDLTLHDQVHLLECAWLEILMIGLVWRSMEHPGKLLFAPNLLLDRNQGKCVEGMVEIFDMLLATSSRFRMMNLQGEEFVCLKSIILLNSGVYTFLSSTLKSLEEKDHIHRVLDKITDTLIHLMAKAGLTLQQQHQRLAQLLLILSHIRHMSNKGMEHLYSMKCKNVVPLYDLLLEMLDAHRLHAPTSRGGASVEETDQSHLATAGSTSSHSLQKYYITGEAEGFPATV
Description: (§1) The MCF-7 assay uses MCF-7, clone WS8, cells to measure whether and to what extent a substance induces cell proliferation via estrogen receptor (ER)-mediated pathways.

Data set [2] deals with T1, human estrogen receptor. In words: in vitro estrogenic activity assay correlated to the MCF-7 cell proliferation assay. As to conditions: suitable in vitro assay whose results are directly correlated to the MCF-7 assay.
Description: as §1

In the case of `Cc1cc(Cc2cc(C)cc(C(C)(C)C)c2O)c(O)c(C(C)(C)C)c1` [2,2′-methylenebis(4-methyl-6-t-butylphenol)], at human estrogen receptor [1], the estrogenic activity entry was “do not exhibit appreciable estrogenic activity”.
Consider `CC(C)(C)c1cc(O)c(C(C)(C)C)cc1O` [2,5-di-t-butylhydroquinone], for which the estrogenic activity result at human estrogen receptor [1] is given as “do not exhibit appreciable estrogenic activity”.
In the case of `CC(C)(C)c1cc(Cc2cc(C(C)(C)C)c(O)c(C(C)(C)C)c2)cc(C(C)(C)C)c1O` [4,4′-methylenebis(2,6-di-t-butylphenol)], the estrogenic activity result at human estrogen receptor [1] was “do not exhibit appreciable estrogenic activity”.
As to `Cc1cc(Cc2cc(C)c(O)c(C)c2)cc(C)c1O` [4,4′-methylenebis(2,6-dimethylphenol)], on human estrogen receptor [2], the estrogenic activity entry is listed as “do not exhibit appreciable estrogenic activity”.
Regarding `CCCC(c1cc(C(C)(C)C)c(O)cc1C)c1cc(C(C)(C)C)c(O)cc1C` [4,4′butylidenebis(2-t-butyl-5-methylphenol)], the estrogenic activity entry at human estrogen receptor [2] is “do not exhibit appreciable estrogenic activity”.

The record behind these values is patent US11667809B2, “Adhesion promoters and compositions for containers and other articles” (SWIMC LLC, priority 2017, dated 2023).
